Where two headings read alike, the source gives them in different places.
Tests used:
melanoma tumor = test: Treatment of melanoma tumor bearing animals; format: in vivo
[1] = test system: A375 human melanoma cells; test: MTT viability analysis, TPP chain length and treatment time, A375 cells; settings: for cytotoxicity at 0.5 µM: Homo sapiens, read-out: decrease in A375 cell viability
Method: (§1) A375 human melanoma (catalog no. CRL1619™) cells were purchased from ATCC®. All cells were cultured in 150 cm^2 culture flasks at 37° C. in a humidified 5% CO2 incubator and detached with 0.25% trypsin-EDTA (GIBCO®, catalog no. 25200). A375 cells were cultured in high glucose DMEM medium (GIBCO®, catalog no. 11965) supplemented with 1% PenStrep (GIBCO®, catalog no. 15140) and 10% FBS (GIBCO®, catalog no. 26140). MeWo cells were cultured in 1:1 DMEM:F12 (VENDOR INFO) medium supplemented with 1% PenStrep and 10% FBS. Melanocytes were cultured in Ham's F10 medium (GIBCO®, catalog no 11550) supplemented with 7% horse serum (Hyclone®, catalog no. SH30074.03) and 50 ng/mL 12-myristate 13-acetate (TPA) (Sigma®, catalog no. P-8139). Experiments were performed with cells at or below passage twenty.
(§2) MTT viability analysis of melanoma cells versus non-malignant melanocyte cells looking at the effect of variation in TPP molecular chain length and treatment time. A375 human melanoma cells in (A), MeWo human melanoma cells in (B), and non-malignant melanocyte cells in (C) were treated with TPP derivatives at a 0.5 μM concentration for 24 h, 48 h, and 72 h.

[2] = test system: MeWo human melanoma cells; test: MTT viability analysis, TPP chain length and treatment time, MeWo cells; settings: for cytotoxicity at 0.5 µM: Homo sapiens, MeWo, read-out: decrease in MeWo cell viability
Method: as §1, §2

[3] = test system: non-malignant melanocyte cells; test: MTT viability analysis, TPP chain length and treatment time, melanocytes; settings: 0.5 μM
Method: as §1, §2

## CCCCCCCCCC[P+](c1ccccc1)(c1ccccc1)c1ccccc1 [decyl-TPP, decyltriphenylphosphonium]
Melanoma tumor
  tolerability: well-tolerated
[1]; 0.5 μM, 24 h
  decrease in A375 cell viability: no significant decrease
[1]; A-375, 48 h
  cytotoxicity at 0.5 µM: > 30%
[1]; A-375, 72 h
  cytotoxicity at 0.5 µM: > 30%
[2]; 0.5 μM, 24 h
  decrease in MeWo cell viability: no significant decrease
[2]; 48 h
  cytotoxicity at 0.5 µM: > 30%
[2]; 72 h
  cytotoxicity at 0.5 µM: > 30%
[3]; 24 h
  decrease in non-malignant melanocyte cell viability: No significant decrease
[3]; 48 h
  decrease in non-malignant melanocyte cell viability: No significant decrease
[3]; 72 h
  decrease in melanocyte viability: not observed

Reference: US20150366884A1, “COMPOSITIONS AND METHODS FOR CANCER THERAPY” (UNIVERSITY OF IOWA RESEARCH FOUNDATION, priority 2013, published 2015)
